From patent publication US12180146B2, “Antihypertensive polyol compound and derivative thereof” (TAO PHARMACEUTICAL (SUZHOU) CO., LTD, priority 2020, dated 2024)

Tested on: spontaneously hypertensive rats (SHR)
Assay: Antihypertensive activity test: blood pressure and heart rate of spontaneously hypertensive rats (SHR)
Format: in vivo, rat
Conditions: 200 mg/kg
Description: Tested Drugs: Compounds of the Invention. The dosage of all compound was uniformly set to 200 mg/kg.
In the test, changes in the blood pressure before and after the administration were detected, and compared with the basic value, a reduction of SBP ≥20 mmHg after administration was judged as effective antihypertensive effects; and at the same time, changes in the heart rate before and after the administration were detected.
Heart rate was expressed as mean±standard deviation (x±s). The changes of heart rate before and after the administration were compared by using Two-sample equal variance paired t test, and P<0.05 was regarded as the standard of statistically significant difference.

[1] = after administration (6 h M ± SD), n = 8
[2] = before administration, M ± SD, n = 8

Compound	SBP Difference before and after administration, 1 h (1 h)	SHR blood pressure (SBP), time after administration 1 h (1 h, n = 8)	SBP Difference before and after administration, 2 h (2 h)	SHR blood pressure (SBP), time after administration 2 h (2 h, n = 8)	SBP Difference before and after administration, 3 h (3 h)	SHR blood pressure (SBP), time after administration 3 h (3 h, n = 8)	SBP Difference before and after administration, 4 h (4 h)	SHR blood pressure (SBP), time after administration 4 h (4 h, n = 8)	SBP Difference before and after administration, 5 h (5 h)	SHR blood pressure (SBP), time after administration 5 h (5 h, n = 8)	SBP Difference before and after administration, 6 h (6 h)	SHR blood pressure (SBP), time after administration 6 h (6 h, n = 8)	also measured
CCc1cccc([C@@H](O)CO)c1 [Compound 1-1]	14 mmHg	176 ± 12.4 mmHg	22 mmHg	168 ± 12.0 mmHg	29 mmHg	161 ± 13.1 mmHg	24 mmHg	166 ± 11.4 mmHg	20 mmHg	170 ± 11.9 mmHg	14 mmHg	186 ± 10.1 mmHg	SBP Difference before and after administration, 0 h (0 h): 0 mmHg
CCc1cccc([C@H](O)CO)c1 [Compound 1-2]	10 mmHg	176 ± 6.39 mmHg	22 mmHg	164 ± 4.50 mmHg	25 mmHg	161 ± 9.15 mmHg	23 mmHg	163 ± 13.7 mmHg	12 mmHg	174 ± 15.9 mmHg	8 mmHg	178 ± 8.78 mmHg	
[2H]OCC(O[2H])c1cccc(CC)c1 (centres unmarked) [Compound 1-3]	18 mmHg	168 ± 6.39 mmHg	21 mmHg	165 ± 4.50 mmHg	23 mmHg	163 ± 9.15 mmHg	23 mmHg	163 ± 13.7 mmHg	22 mmHg	164 ± 15.9 mmHg	18 mmHg	168 ± 8.78 mmHg	
OCC(O)c1ccccc1 (centres unmarked) [Compound 2]	16 mmHg	169 ± 6.39 mmHg	18 mmHg	167 ± 4.50 mmHg	19 mmHg	166 ± 9.15 mmHg	19 mmHg	166 ± 13.7 mmHg	20 mmHg	165 ± 15.3 mmHg	15 mmHg	170 ± 8.77 mmHg	
Cc1cccc(C(O)CO)c1 (centres unmarked) [Compound 3]	18 mmHg	180 ± 11.6 mmHg	10 mmHg	178 ± 10.9 mmHg	11 mmHg	177 ± 13.9 mmHg	8 mmHg	180 ± 15.80 mmHg	2 mmHg	186 ± 16.0 mmHg	2 mmHg	186 ± 17.7 mmHg	
CCc1ccc(C(O)CO)cc1 (centres unmarked) [Compound 4]	3 mmHg	182 ± 11.6 mmHg	7 mmHg	178 ± 10.8 mmHg	8 mmHg	177 ± 10.9 mmHg	5 mmHg	180 ± 15.80 mmHg	1 mmHg	184 ± 16.0 mmHg	−1 mmHg	186 ± 17.7 mmHg	SHR heart rate, time after administration 0 h (0 h, N = 8): 345 ± 42.2 beat/min; Heart rate Difference before and after administration, 1 h (1 h): 2 beat/min; SHR heart rate, time after administration 1 h (1 h, N = 8): 347 ± 42.6 beat/min; Heart rate Difference before and after administration, 2 h (2 h): 4 beat/min; SHR heart rate, time after administration 2 h (2 h, N = 8): 349 ± 49.7 beat/min; Heart rate Difference before and after administration, 3 h (3 h): 4 beat/min; SHR heart rate, time after administration 3 h (3 h, N = 8): 349 ± 48.3 beat/min; Heart rate Difference before and after administration, 4 h (4 h): 0 beat/min; SHR heart rate, time after administration 4 h (4 h, N = 8): 345 ± 45.1 beat/min; Heart rate Difference before and after administration, 5 h (5 h): −6 beat/min; SHR heart rate, time after administration 5 h (5 h, N = 8): 338 ± 39.7 beat/min; Heart rate Difference before and after administration, 6 h (6 h): −4 beat/min; SHR heart rate, time after administration 6 h (6 h, N = 8): 341 ± 46.9 beat/min; Blood pressure (SBP, mmHg) After administration [1]: 181 ± 13.2 mmHg; Heart rate (beat/min) After administration [1]: 346 ± 43.4 beat/min; Heart rate Difference (beat/min) (after administration minus baseline (6 h)): 1 beat/min; Blood pressure Difference mmHg (baseline minus after administration (6 h)): 3 mmHg; Blood pressure (SBP, mmHg) Baseline [2]: 184 ± 14.7 mmHg; Heart rate (beat/min) Baseline [2]: 345 ± 42.2 beat/min
OCC(O)c1cccc(Br)c1 (centres unmarked) [Compound 6]	5 mmHg	184 ± 10.9 mmHg	9 mmHg	180 ± 12.4 mmHg	9 mmHg	180 ± 7.80 mmHg	6 mmHg	183 ± 6.56 mmHg	7 mmHg	182 ± 8.29 mmHg	1 mmHg	188 ± 13.2 mmHg	
CC(C)c1cccc(C(O)CO)c1 (centres unmarked) [Compound 9]	2 mmHg	192 ± 11.6 mmHg	6 mmHg	188 ± 12.1 mmHg	17 mmHg	177 ± 12.3 mmHg	14 mmHg	180 ± 12.85 mmHg	10 mmHg	184 ± 16.0 mmHg	8 mmHg	186 ± 17.8 mmHg	
CC(=O)c1ccc(C(O)CO)cc1 (centres unmarked) [Compound 10]	6 mmHg	186 ± 9.54 mmHg	10 mmHg	182 ± 7.36 mmHg	13 mmHg	179 ± 4.07 mmHg	9 mmHg	183 ± 7.65 mmHg	7 mmHg	185 ± 5.64 mmHg	2 mmHg	190 ± 6.54 mmHg	
